Data: PMC4504079, “Andrographolide sodium bisulphite-induced inactivation of urease: inhibitory potency, kinetics and mechanism” (BMC Complementary and Alternative Medicine, 2015)

How the values were obtained:
jack bean urease (JBU) = jack bean urease (JBU) (Canavalia ensiformis, UniProt P07374); test: urease activity assay (modified Berthelot ammonia determination), slow-binding progress curves; format: biochemical
[1] = molecular target: T1, Helicobacter pylori urease (HPU) (Helicobacter pylori, UniProt P69996); test: urease activity assay on desalted crude bacterial extract (modified Berthelot); format: biochemical
T1 construct: gene ureB; crude urease solution from H. pylori ATCC 43504
T1 sequence (P69996 whole entry): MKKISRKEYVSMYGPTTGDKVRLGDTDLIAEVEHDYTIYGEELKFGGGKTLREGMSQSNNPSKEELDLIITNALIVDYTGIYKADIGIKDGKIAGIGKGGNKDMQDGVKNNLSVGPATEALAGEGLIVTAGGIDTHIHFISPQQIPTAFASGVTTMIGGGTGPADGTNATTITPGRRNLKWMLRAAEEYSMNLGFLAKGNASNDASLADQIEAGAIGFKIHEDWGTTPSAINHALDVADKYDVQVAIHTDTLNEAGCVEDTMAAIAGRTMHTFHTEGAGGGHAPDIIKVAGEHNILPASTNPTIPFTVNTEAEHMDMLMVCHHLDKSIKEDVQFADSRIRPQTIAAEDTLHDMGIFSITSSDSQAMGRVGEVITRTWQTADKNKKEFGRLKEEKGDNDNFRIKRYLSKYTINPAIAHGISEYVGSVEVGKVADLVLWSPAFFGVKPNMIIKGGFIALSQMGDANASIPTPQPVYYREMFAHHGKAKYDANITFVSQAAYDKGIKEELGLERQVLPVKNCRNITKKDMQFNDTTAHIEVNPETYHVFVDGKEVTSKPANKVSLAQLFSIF

Sequence of jack bean urease (JBU) (P07374 whole entry): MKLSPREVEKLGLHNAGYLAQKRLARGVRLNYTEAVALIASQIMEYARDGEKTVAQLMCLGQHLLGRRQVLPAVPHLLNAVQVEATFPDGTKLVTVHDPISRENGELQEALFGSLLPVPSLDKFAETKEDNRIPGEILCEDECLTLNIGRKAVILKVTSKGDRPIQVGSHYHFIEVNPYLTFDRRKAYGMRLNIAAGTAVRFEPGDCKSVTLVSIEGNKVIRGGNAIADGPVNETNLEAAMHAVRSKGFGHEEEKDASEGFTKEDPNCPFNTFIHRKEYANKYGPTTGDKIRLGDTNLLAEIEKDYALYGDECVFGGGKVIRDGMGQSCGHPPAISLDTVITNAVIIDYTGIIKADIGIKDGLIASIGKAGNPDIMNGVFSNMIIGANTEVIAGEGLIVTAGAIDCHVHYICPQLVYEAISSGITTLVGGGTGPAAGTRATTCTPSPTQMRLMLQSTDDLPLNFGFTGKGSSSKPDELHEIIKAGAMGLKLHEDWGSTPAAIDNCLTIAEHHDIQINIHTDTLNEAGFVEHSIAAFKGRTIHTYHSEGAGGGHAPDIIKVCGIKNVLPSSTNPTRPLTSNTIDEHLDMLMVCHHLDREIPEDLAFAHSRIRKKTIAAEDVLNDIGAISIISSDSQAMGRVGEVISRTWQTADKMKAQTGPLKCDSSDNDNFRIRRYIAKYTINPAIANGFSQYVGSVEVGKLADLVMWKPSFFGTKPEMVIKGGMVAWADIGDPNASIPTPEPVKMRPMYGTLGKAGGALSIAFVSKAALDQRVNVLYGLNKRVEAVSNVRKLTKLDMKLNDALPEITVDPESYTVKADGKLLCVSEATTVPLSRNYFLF

SMILES: C=C1CC[C@@H]2[C@](C)(CO)[C@H](O)CC[C@@]2(C)[C@@H]1CC(C1=CCOC1=O)S(=O)(=O)O (some centres unmarked) [ASB, Andrographolide sodium bisulphite]
- IC50 (jack bean urease (JBU)): 3.28 ± 0.13 mM
- IC50 [1]: 3.17 ± 0.34 mM
